Test results: paper PMC12772312, “The MAB_3513c gene plays a key role in intrinsic resistance of Mycobacterium abscessus to isoniazid and ethionamide” (Microbiology Spectrum, 2025)

B1: Mycobacterium abscessus NADH pyrophosphatase NudC (MAB_3513c), wild type (enzyme)
chain: MTFRLRNIPLLSRVGLDRADELRSNPEELAKGWAEAGLITLDVRGRVNIVDGQVVIEDAARIGDQPPEHAVFLGRIPGGRHVWAVRADLDEDSAPLLDLRRSGQLFDDTSAALLATAMAMLAWHDNAGYSPVDGSPTIPAKGGWVRVNSATGQEEFPRTDPAIICLVHDGGDRAVLGRQKFWPERMFSLLAGFVEAGESLEACVAREVAEEVGLTVTDVQYLGSQPWPFPRSIMLGFHAIGDPSQPFAFNDGEIAEADWFTRAEVRSALEAGDWTTASDSRLMLPGSISIAREIVESWAYAGEEPPAGRP
notes: NADH pyrophosphatase NudC of Mycobacterium abscessus, gene MAB_3513c (nudC); The strain used in the study is M. abscessus subsp. abscessus GZ002 (genome GenBank CP034181); also called Wt NudC; source: E. coli BL21 (λDE3), pET-28a, purified (his-tag protein purification kit)

Legend:
[1] = target: T1, NudC (NudC^Mab; MAB_3513c) (Mycobacteroides abscessus, UniProt A0A0U1C370); assay: HPLC/MS of metabolite extracts, wild type versus nudC deletion strain; format: cell-based; settings: adduct formed in cells from ethionamide (256 ug/mL, 3 h, 37 C); no purified enzyme assay
T1 construct: native full-length protein in M. abscessus cells, compared with isogenic nudC deletion; functional homodimer

[2] = target: the molecule itself; assay: SEC; HiLoad 16/600 Superdex 75 pg, 20 mM Tris-HCl (pH 7.5), 150 mM NaCl, 1 mM 1,4-dithiothreitol, 4°C, 1 mL/min; retention times compared to molecular weight standards

Row | Molecule | HPLC/MS of metabolite extracts, wild type versus nudC deletion strain [1] | stoichiometry N [2]
1 | CCc1cc(C(=O)C2C=CN([C@@H]3O[C@H](COP(=O)(O)OP(=O)(O)OC[C@H]4O[C@@H](n5cnc6c(N)ncnc65)[C@H](O)[C@@H]4O)[C@@H](O)[C@H]3O)C=C2C(N)=O)ccn1 (some centres unmarked) [ETH-NAD adduct] | nudC encodes a functional NudC that hydrolyzes ETH-NAD adduct | 
2 | B1 |  | 2
